The text below walks through data of PMC7404261 (2020).

Structures are written as SMILES.

In assay [1] the test system is ssDNA-G4-Fw (DNA, G4) CGGGAAAAGGCGCGCGGAAGGGGT
The assay can be described thus: ThT fluorescence titration. The note with it: Na+ (PBS), ThT 3 µM, ODN 0-6 µM, 491 nm, fitted to 1:1 model, unit not given.

Assay [2] concerns RNA-G4 (RNA, G4) GGGAAAAGGCGCGCGGAAGGGG
The assay can be described thus: ThT fluorescence titration. The note with it: Na+ (PBS), ThT 3 µM, ODN 0-6 µM, 491 nm, fitted to 1:1 model, unit not given.

Turning to `Cc1ccc2c(c1)sc(-c1ccc(N(C)C)cc1)[n+]2C`, the values for the association constant in assay [1] and in assay [2] were 2.72 × 10^6 and 2.90 × 10^6, respectively.
